Laboratory results: patent US12187742B2 (XRAD Therapeutics, Inc., priority 2018, dated 2025)
Structures can show the parent of a compound that is named as a salt.

Tests used:
ATM = ATM (Homo sapiens (Human), UniProt Q13315); assay: ATM in Cell Western Assay (pKAP1 in etoposide-treated MCF-7 cells); type: cell-based
In short: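 Cells received compounds in a 10-dose, 3-fold series from a 1 μM final top concentration, then 100 μM etoposide, for 1 hr at 37° C. They were then fixed with paraformaldehyde and permeabilized with 0.1% Triton X-100. After immunostaining, plates were scanned on an infrared imager.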

DNA-PK = DNA-PK (Homo sapiens (Human), UniProt P78527); assay: DNA-PK Enzyme-Linked Immunosorbent Assay (phosphorylation of GST-p53 (1-101) peptide); type: biochemical; conditions: ELISA
In short: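 ELISA with plate-bound GST-p53 (1-101) phosphorylated by DNA-PK (0.1 μg/mL final) with 20 μM ATP for 1 h at 25 °C. Compounds tested over 10 3-fold doses from 100 nM top final. Phospho-p53 Ser15 detected by antibody, HRP and TMB, absorbance at 450 nm.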

[1] = MCF-7 cells, etoposide 100 μM, 1 hr, pKAP1 readout
[2] = pKAP1 in etoposide-treated MCF-7 cells

ATM, sequence (Q13315 whole entry): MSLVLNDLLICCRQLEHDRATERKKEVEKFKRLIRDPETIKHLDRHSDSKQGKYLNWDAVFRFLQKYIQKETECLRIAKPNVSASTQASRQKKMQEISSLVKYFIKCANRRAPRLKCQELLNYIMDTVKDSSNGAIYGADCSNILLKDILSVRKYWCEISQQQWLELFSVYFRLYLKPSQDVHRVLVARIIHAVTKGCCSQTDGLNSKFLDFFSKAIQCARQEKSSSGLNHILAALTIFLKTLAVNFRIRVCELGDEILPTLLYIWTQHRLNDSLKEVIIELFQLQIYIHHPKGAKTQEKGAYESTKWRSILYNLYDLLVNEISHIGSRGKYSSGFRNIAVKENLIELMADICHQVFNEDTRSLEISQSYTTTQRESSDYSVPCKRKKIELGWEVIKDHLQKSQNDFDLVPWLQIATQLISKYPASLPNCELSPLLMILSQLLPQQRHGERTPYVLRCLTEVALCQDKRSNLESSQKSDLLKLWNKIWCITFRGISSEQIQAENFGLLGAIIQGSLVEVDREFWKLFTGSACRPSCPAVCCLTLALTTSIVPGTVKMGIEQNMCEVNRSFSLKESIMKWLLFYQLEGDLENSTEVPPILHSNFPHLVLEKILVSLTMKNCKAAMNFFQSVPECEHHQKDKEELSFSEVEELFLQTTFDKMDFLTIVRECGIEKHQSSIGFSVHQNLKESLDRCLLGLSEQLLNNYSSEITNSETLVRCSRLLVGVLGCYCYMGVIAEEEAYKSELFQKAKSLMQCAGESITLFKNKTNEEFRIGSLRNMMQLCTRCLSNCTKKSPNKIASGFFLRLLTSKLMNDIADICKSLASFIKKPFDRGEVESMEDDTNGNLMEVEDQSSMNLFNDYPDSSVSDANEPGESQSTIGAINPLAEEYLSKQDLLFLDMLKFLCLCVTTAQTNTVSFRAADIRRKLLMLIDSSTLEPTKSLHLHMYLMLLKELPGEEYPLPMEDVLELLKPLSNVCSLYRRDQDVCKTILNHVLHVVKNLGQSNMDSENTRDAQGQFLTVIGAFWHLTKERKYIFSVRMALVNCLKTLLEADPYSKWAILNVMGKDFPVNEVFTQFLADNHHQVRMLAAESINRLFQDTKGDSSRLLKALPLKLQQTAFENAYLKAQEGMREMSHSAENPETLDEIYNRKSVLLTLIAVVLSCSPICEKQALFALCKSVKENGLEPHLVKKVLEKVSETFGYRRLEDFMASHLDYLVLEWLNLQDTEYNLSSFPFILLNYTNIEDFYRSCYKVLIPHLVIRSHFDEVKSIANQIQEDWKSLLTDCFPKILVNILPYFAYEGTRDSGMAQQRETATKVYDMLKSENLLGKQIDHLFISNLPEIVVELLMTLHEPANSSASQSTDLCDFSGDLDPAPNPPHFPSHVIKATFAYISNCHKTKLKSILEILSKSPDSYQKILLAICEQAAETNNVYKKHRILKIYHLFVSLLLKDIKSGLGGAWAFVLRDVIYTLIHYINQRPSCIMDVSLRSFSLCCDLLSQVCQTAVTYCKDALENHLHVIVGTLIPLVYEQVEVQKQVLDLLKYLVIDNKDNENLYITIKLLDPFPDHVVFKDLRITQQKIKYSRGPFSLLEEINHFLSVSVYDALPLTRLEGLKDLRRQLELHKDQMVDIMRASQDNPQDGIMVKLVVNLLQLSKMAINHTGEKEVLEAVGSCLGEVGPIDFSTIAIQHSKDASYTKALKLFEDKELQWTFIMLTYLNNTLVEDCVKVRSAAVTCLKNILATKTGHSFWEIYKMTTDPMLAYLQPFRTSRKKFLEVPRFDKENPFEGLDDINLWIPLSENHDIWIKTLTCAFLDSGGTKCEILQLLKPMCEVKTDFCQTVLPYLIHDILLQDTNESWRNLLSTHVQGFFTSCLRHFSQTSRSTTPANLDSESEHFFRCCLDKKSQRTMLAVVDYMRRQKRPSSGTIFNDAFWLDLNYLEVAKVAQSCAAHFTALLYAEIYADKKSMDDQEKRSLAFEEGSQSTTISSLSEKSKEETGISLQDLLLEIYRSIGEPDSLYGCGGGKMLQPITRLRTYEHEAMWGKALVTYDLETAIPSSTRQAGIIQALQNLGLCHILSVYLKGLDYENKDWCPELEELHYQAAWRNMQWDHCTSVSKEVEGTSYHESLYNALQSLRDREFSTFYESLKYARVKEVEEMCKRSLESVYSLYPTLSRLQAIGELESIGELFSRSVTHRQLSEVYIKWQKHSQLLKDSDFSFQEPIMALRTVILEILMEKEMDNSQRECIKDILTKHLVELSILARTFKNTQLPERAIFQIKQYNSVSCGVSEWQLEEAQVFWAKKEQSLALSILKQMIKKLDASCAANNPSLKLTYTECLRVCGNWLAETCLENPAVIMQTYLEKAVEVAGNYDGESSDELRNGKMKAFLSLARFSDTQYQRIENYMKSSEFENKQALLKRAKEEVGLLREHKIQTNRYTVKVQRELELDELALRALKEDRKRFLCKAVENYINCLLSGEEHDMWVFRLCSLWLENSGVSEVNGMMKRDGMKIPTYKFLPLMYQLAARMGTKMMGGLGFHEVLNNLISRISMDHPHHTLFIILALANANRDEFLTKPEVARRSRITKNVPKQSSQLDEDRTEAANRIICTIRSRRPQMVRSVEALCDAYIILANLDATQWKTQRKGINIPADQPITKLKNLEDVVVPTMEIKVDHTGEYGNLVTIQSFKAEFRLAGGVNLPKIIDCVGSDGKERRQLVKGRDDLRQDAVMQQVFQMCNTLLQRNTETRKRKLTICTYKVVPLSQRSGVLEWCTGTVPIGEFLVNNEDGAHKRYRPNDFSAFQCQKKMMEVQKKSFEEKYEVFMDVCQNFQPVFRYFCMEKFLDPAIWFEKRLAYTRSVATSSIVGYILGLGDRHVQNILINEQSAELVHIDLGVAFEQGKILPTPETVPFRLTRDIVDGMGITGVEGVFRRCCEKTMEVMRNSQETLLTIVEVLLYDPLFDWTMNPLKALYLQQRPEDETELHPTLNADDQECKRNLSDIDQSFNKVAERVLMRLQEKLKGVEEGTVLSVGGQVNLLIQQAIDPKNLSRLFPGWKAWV

IC50 (ATM; [1]) [nM] | IC50 (DNA-PK; ATP 20 μM) [nM] | IC50 (ATM; [2]) [nM] | IC50 (DNA-PK; 20 μM ATP) [nM] | SMILES
1 to 100 | < 0.5 | – | – | CN(C)CCCOc1ncc(-c2ccc3ncc4c(c3c2)C2(CC2)C(=O)N4C)cc1NS(=O)(=O)N(C)C [Example 109]
1 to 100 | 1 to 100 | – | – | CN(C)CCCNc1ncc(-c2ccc3ncc4c(c3c2)C2(CC2)C(=O)N4C)cn1 [Example 70, 8′-(2-((3-(Dimethylamino)propyl)amino)pyrimidin-5-yl)-3′-methylspiro[cyclopropane-1,1′-pyrrolo[2,3-c]quinolin]-2′(3′-H)-one]
1 to 100 | < 0.5 | – | – | CN(C)CCCOc1ncc(-c2ccc3ncc4c(c3c2)C2(CCC2)C(=O)N4C)cc1NS(=O)(=O)C(F)F [Example 247, N-(2-(3-(Dimethylamino)propoxy)-5-(3′-methyl-2′-oxo-2′,3′-dihydrospiro [cyclobutane-1,1′-pyrrolo[2,3-c]quinolin]-8′-yl)pyridin-3-yl)-1,1′-difluoromethane-sulfonamide]
– | – | > 100 | 1 to 100 | CC(C)NCCOc1ncc(-c2cc3c(cc2F)ncc2c3[C@]3(C[C@@H](c4cccnc4)C3)C(=O)N2C)cc1NS(C)(=O)=O [Example 437, trans-N-{5-(7′-Fluoro-3′-methyl-2′-oxo-3-(pyridin-3-yl)-2′,3′-dihydrospiro[cyclobutane-1,1′-pyrrolo[2,3-c]quinolin]-8′-yl)-2-(2-(isopropylamino)ethoxy)pyridin-3-yl)methanesulfonamide]
– | – | 1 to 100 | 1 to 100 | CC(C)NCCOc1ncc(-c2cc3c4c(cnc3cc2F)N(C)C(=O)C42CN(c3ccc(F)cc3)C2)cc1NS(C)(=O)=O [Example 538, N-(5-(7′-Fluoro-1-(4-fluorophenyl)-3′-methyl-2′-oxo-2′,3′-dihydrospiro [azetidine-3,1′-pyrrolo[2,3-c]quinolin]-8′-yl)-2-(2-(isopropylamino)ethoxy)pyridin-3-yl)methanesulfonamide hydrochloride]
1 to 100 | < 0.5 | – | – | Cc1cc(S(=O)(=O)Nc2cc(-c3ccc4ncc5c(c4c3)C3(CCC3)C(=O)N5C)cnc2OCCCN2CCCCC2)sn1 [Example 194, 3-Methyl-N-(5-(3′-methyl-2′-oxo-2′,3′-dihydrospiro[cyclobutane-1,1′-pyrrolo[2,3-c]quinolin]-8′-yl)-2-(3-(piperidin-1-yl)propoxy)pyridin-3-yl)isothiazole-5-sulfonamide hydrochloride]
1 to 100 | 0.5 to 1 | – | – | COc1ccc(S(=O)(=O)Nc2cc(-c3ccc4ncc5c(c4c3)C3(CCC3)C(=O)N5C)cnc2OCCCN(C)C)cn1 [Example 133, N-(2-(3-(Dimethylamino)propoxy)-5-(3′-methyl-2′-oxo-2′,3′-dihydrospiro[cyclobulane-l.1′-pyrrolo[2,3-c]quinolin]-8′-yl)pyridin-3-yl)-6-methoxypyridine-3-sulfonamide hydrochloride]
1 to 100 | 1 to 100 | – | – | CN1CCN(c2ncc(-c3cc4c5c(cnc4cc3F)N(C)C(=O)C53CC3)cc2NS(=O)(=O)c2ccccc2)CC1 [Example 117, N-(5-(7′-Fluoro-3′-methyl-2′-oxo-2′,3′-dihydrospiro [cyclopropane-1,1′-pyrrolo[2,3-c]quinolin]-8′-yl)-2-(4-methylpiperazin-l-yl)Pyridin-3-yl)benzenesulfonamide hydrochloride]
1 to 100 | < 0.5 | – | – | CN(C)CCCOc1ncc(-c2ccc3ncc4c(c3c2)C2(CC2)C(=O)N4C)cc1NS(=O)(=O)c1cc(Cl)cc(Cl)c1 [Example 125, 3.5-Dichloro-IN-(2-(3-(dimethylamino)propoxy)-5-(3′-methyl-2′-oxo-2′,3′-dihydrospiro[cyclopropane-1,1′-pyrrolo[2,3-c]quinolin]-8′-yl)pyridin-3-yl)benzenesulfonamide]
1 to 100 | < 0.5 | – | – | COc1ccc(S(=O)(=O)Nc2cc(-c3ccc4ncc5c(c4c3)C3(CC3)C(=O)N5C)cnc2OCCCN2CCCCC2)cc1 [Example 119, 4-Methoxy-N-(5-(3′-methyl-2′-oxo-2′,3′-dihydrospiro[cyclopropane-1,1′-pyrrolo[2,3-c]quinolin]-8′-yl)-2-(3-(piperidin-1-yl)propoxy)pyridin-3-yl(benzenesulfonamide hydrochloride]
